# Experimental data taken from PubChem BioAssay AID342 (DTP/NCI, 2004).
# “And” between values parts separate entries of the source, which are not always exact repeats. Equal values may be shown once. Square brackets hold non-standard residues; d marks the D form. Peptide text beside a SMILES is read from it. Ac5c = NC1(C(=O)O)CCCC1
# Tested on: Swiss mice, Sarcoma 180 sc, mean tumor weight T/C
# Experiment: NCI In Vivo Anticancer Drug Screen. Data for tumor model Sarcoma 180 (subcutaneous) in Swiss mice
# Conditions: endpoint: mean tumor weight, higher = larger tumour
# How it was run: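 T/C ratio: treated over vehicle-treated controls, measuring survival or tumor size in transplanted-tumor mice.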
# [1] = dose: 125.0 mg/kg/injection, schedule: Q01DX007 (sc), vehicle: steriod suspending solution
# [2] = dose: 500.0 mg/kg/injection, schedule: Q01DX007 (sc), vehicle: steriod suspending solution
smiles,measurement,setting,value
NC(Cc1cc(I)c(Oc2ccc(O)c(I)c2)c(I)c1)C(=O)O (configuration not stated),T/C,"dose: 0.1 micrograms/kg/injection, schedule: Q01DX007 (sc), vehicle: steriod suspending solution",103 % of control
same,T/C,"dose: 1.0 micrograms/kg/injection, schedule: Q01DX007 (sc), vehicle: steriod suspending solution",95 % of control
same,T/C,"dose: 10.0 micrograms/kg/injection, schedule: Q01DX007 (sc), vehicle: steriod suspending solution",156 % of control
NC1(C(=O)NC2(C(=O)O)CCCC2)CCCC1 (H-[Ac5c]-[Ac5c]-OH),T/C,"dose: 7.5 mg/kg/injection, schedule: Q#A X014 (ip), vehicle: carboxymethylcellulose (CMC)",66 % of control
same,T/C,"dose: 15.0 mg/kg/injection, schedule: Q#A X014 (ip), vehicle: carboxymethylcellulose (CMC)",65 % of control
same,T/C,"dose: 30.0 mg/kg/injection, schedule: Q#A X014 (ip), vehicle: carboxymethylcellulose (CMC)",58 % of control
same,T/C,"dose: 60.0 mg/kg/injection, schedule: Q#A X014 (ip), vehicle: carboxymethylcellulose (CMC)",32 % of control
O=C(CCN1CC1)OCCOC(=O)CCN1CC1,T/C,"dose: 4.0 mg/kg/injection, schedule: Q#A X014 (ip), vehicle: methylcellulose (MC)",44 % of control
same,T/C,"dose: 6.0 mg/kg/injection, schedule: Q#A X014 (ip), vehicle: methylcellulose (MC)",60 % of control
same,T/C,"dose: 9.0 mg/kg/injection, schedule: Q#A X014 (ip), vehicle: methylcellulose (MC)",50 % of control
CC(C)=C(Br)CC[C@@H](C)[C@H]1CC[C@@]2(C)C3=C(CC[C@]12C)[C@@]1(C)CC[C@H](O)C(C)(C)[C@@H]1CC3,T/C,"dose: 62.0 mg/kg/injection, schedule: Q01DX007 (sc), vehicle: steriod suspending solution",109 % of control
same,T/C,[1],97 % of control
same,T/C,[2],183 % of control
CNC(C)=O,T/C,"dose: 125.0 mg/kg/injection, schedule: Q01DX007 (ip), vehicle: carboxymethylcellulose (CMC)",84 % of control
same,T/C,"dose: 250.0 mg/kg/injection, schedule: Q01DX007 (ip), vehicle: carboxymethylcellulose (CMC)",90 % of control and 106 % of control
same,T/C,"dose: 500.0 mg/kg/injection, schedule: Q01DX007 (ip), vehicle: carboxymethylcellulose (CMC)",71 % of control
same,T/C,"dose: 623.2 mg/kg/injection, schedule: Q01DX007 (ip), vehicle: carboxymethylcellulose (CMC)",72 % of control
same,T/C,"dose: 779.0 mg/kg/injection, schedule: Q01DX007 (ip), vehicle: carboxymethylcellulose (CMC)",75 % of control
same,T/C,"dose: 1038.66 mg/kg/injection, schedule: Q01DX007 (ip), vehicle: carboxymethylcellulose (CMC)",69 % of control
same,T/C,"dose: 1558.0 mg/kg/injection, schedule: Q01DX007 (ip), vehicle: carboxymethylcellulose (CMC)",58 % of control
same,T/C,"dose: 2000.0 mg/kg/injection, schedule: Q01DX007 (ip), vehicle: carboxymethylcellulose (CMC)",23 % of control
CCC(=O)O[C@H]1CC[C@H]2[C@@H]3CCC4=CC(=O)CC[C@]4(C)[C@H]3CC[C@]12C,T/C,"dose: 90.0 mg/kg/injection, schedule: Q01DX007 (sc), vehicle: steriod suspending solution",102 % of control
same,T/C,[1],82 % of control
same,T/C,"dose: 180.0 mg/kg/injection, schedule: Q01DX007 (sc), vehicle: steriod suspending solution",104 % of control
same,T/C,"dose: 250.0 mg/kg/injection, schedule: Q01DX007 (sc), vehicle: steriod suspending solution",102 % of control
same,T/C,"dose: 360.0 mg/kg/injection, schedule: Q01DX007 (sc), vehicle: steriod suspending solution",107 % of control
same,T/C,[2],60 % of control
same,T/C,"dose: 720.0 mg/kg/injection, schedule: Q01DX007 (sc), vehicle: steriod suspending solution",69 % of control
same,T/C,"dose: 1000.0 mg/kg/injection, schedule: Q01DX007 (sc), vehicle: steriod suspending solution",64 % of control
Cc1nc2nc(N)nc(N)c2nc1C,T/C,"dose: 10.0 mg/kg/injection, schedule: Q01DX007 (ip), vehicle: carboxymethylcellulose (CMC)",89 % of control
same,T/C,"dose: 11.46 mg/kg/injection, schedule: Q01DX007 (ip), vehicle: carboxymethylcellulose (CMC)",106 % of control
same,T/C,"dose: 20.0 mg/kg/injection, schedule: Q01DX007 (ip), vehicle: carboxymethylcellulose (CMC)",77 % of control
same,T/C,"dose: 22.92 mg/kg/injection, schedule: Q01DX007 (ip), vehicle: carboxymethylcellulose (CMC)",77 % of control
same,T/C,"dose: 40.0 mg/kg/injection, schedule: Q01DX007 (ip), vehicle: carboxymethylcellulose (CMC)",68 % of control
same,T/C,"dose: 45.85 mg/kg/injection, schedule: Q01DX007 (ip), vehicle: carboxymethylcellulose (CMC)",86 % of control
same,T/C,"dose: 80.0 mg/kg/injection, schedule: Q01DX007 (ip), vehicle: carboxymethylcellulose (CMC)",81 % of control
same,T/C,"dose: 91.7 mg/kg/injection, schedule: Q01DX007 (ip), vehicle: carboxymethylcellulose (CMC)",51 % of control
